Laboratory results taken from US12116388B2, “Amylin receptor agonists” (Novo Nordisk A/S, priority 2022, dated 2024).
Starred links: 1 amine or outer side, 2 acyl side, 3 side chain; linkers in the order of their positions; H or OH if unused. Residues, ends and D or L forms follow the SMILES beside them. Groups on a side chain read outwards from the residue. *: point of attachment. C18 diacid = O=C(O)CCCCCCCCCCCCCCCCC(=O)*; C16 diacid = O=C(O)CCCCCCCCCCCCCCC(=O)*; γGlu = O=C(O)[C@H](CCC(=O)[*:2])N[*:1]

Experiments:
[1] = target: T1, human calcitonin receptor (hCTR) (Homo sapiens, UniProt P30988); assay: Human calcitonin receptor (hCTR) in vitro potency assay, CRE-luciferase reporter in BHK cells; format: cell-based; conditions: BHK hCTR/CRE-Luc cells, 3 hours incubation, assay buffer with 1% ovalbumin; read-out: hCalcR potency, EC50
T1 construct: host or cells: BHK (Baby Hamster Kidney), Hollex-1 cell line
T1 sequence (P30988 25-474): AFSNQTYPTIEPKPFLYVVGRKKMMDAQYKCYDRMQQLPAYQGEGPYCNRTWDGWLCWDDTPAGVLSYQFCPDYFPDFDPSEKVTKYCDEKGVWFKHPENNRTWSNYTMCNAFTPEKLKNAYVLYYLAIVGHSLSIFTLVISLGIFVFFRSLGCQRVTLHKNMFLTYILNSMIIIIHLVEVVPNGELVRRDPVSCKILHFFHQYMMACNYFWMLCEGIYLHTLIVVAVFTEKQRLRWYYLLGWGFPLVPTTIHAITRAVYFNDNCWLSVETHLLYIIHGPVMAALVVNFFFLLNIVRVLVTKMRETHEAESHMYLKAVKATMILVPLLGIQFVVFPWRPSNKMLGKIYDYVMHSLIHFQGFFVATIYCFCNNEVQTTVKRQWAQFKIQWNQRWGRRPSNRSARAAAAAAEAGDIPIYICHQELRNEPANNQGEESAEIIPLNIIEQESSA
Summary of the method: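 BHK cells stably co-expressing human calcitonin receptor and a CRE-luciferase reporter, seeded the day before, were exposed to 7-fold serial dilutions (7 concentrations, often starting near 10 nM) in DMEM/HEPES/1% ovalbumin buffer for 3 h at 37 °C. Luminescence was then read after SteadyLite Plus addition.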

[2] = target: T2, human amylin receptor (hAMYR3) (Homo sapiens, UniProt O60896+P30988); assay: Human amylin receptor (hAMYR3) in vitro potency assay, CRE-luciferase reporter in BHK cells; format: cell-based; conditions: BHK hAMYR3/CRE-Luc cells, 3 hours incubation, assay buffer with 1% ovalbumin
T2 construct: host or cells: BHK (Baby Hamster Kidney), Hollex-1 cell line further transfected with RAMP3
Summary of the method: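 BHK cells stably expressing human calcitonin receptor (a) plus RAMP3 and a CRE-luciferase reporter, seeded overnight, then exposed to 7-point 7-fold dilutions (often from ~10 nM) in DMEM/HEPES buffer with 1% ovalbumin for 3 h at 37 °C. Luciferase luminescence read after SteadyLite Plus addition.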

T2 sequence (O60896 24-148, one chain of several): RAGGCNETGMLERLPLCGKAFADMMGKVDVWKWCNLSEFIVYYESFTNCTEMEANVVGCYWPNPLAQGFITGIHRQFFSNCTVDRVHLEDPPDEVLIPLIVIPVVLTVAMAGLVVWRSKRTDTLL

SMILES | EC50 [1] | EC50 [2]
CC[C@H](C)[C@H](NC(=O)[C@H](CCCCNC(=O)CC[C@H](NC(=O)CCCCCCCCCCCCCCCCC(=O)O)C(=O)O)NC(=O)CNC(=O)[C@H](Cc1ccccc1)NC(=O)[C@@H]1CCCN1C(=O)[C@H](CC(=O)O)NC(=O)[C@H](CO)NC(=O)[C@H](CO)NC(=O)[C@H](Cc1c[nH]cn1)NC(=O)[C@H](Cc1c[nH]cn1)NC(=O)[C@H](CC(C)C)NC(=O)[C@H](Cc1ccccc1)NC(=O)[C@H](CCC(=O)O)NC(=O)[C@H](C)NC(=O)[C@H](CC(C)C)NC(=O)[C@H](CCCNC(=N)N)NC(=O)[C@H](CCC(N)=O)NC(=O)[C@@H](NC(=O)[C@H](CCC(N)=O)NC(=O)[C@H](C)NC(=O)[C@@H](NC(=O)[C@H](CO)NC(=O)[C@H](CC(C)C)NC(=O)[C@H](CCC(N)=O)NC(=O)[C@H](CO)NC(=O)[C@H](C)NC(C)=O)[C@@H](C)O)[C@@H](C)O)C(=O)N1CCC[C@H]1C(=O)N[C@@H](CO)C(=O)N[C@@H](CO)C(=O)N[C@H](C(=O)N[C@@H](CC(=O)O)C(=O)N[C@H](C(=O)NCC(=O)N1CCC[C@H]1C(=O)N[C@@H](CC(=O)O)C(=O)N[C@H](C(=O)N1CCC[C@H]1C(N)=O)[C@@H](C)O)C(C)C)[C@@H](C)O [Compound 19, N^1-acetyl,N{Epsilon-25}-[(4S)-4-carboxy-4-(17-carboxyheptadecanoylamino)butanoyl]-[Ala1,Ser2,Gln3,Leu4,Ser5,Ala7,Gln8,Glu14,His17,Asp21,Pro22,Lys25,Pro27,Asp31,Pro34,Asp35,Pro37]-human amylin] (Ac-ASQLSTAQTQRLAEFLHHSSDPFGK([γGlu-C18 diacid])IPSSTDVGPDTP-NH2) | 1 pM | 1.5 pM
CC[C@H](C)[C@H](NC(=O)[C@@H]1CCCN1C(=O)CNC(=O)[C@H](Cc1ccccc1)NC(=O)[C@H](CC(N)=O)NC(=O)[C@H](CC(=O)O)NC(=O)[C@H](CO)NC(=O)[C@H](CO)NC(=O)[C@H](Cc1c[nH]cn1)NC(=O)[C@H](Cc1c[nH]cn1)NC(=O)[C@H](CC(C)C)NC(=O)[C@H](Cc1ccccc1)NC(=O)[C@H](CCC(=O)O)NC(=O)[C@H](C)NC(=O)[C@H](CC(C)C)NC(=O)[C@H](CCCNC(=N)N)NC(=O)[C@H](C)NC(=O)[C@@H](NC(=O)[C@H](CCC(N)=O)NC(=O)[C@H](C)NC(=O)[C@@H](NC(=O)[C@H](CO)NC(=O)[C@H](CC(C)C)NC(=O)[C@H](Cc1c[nH]cn1)NC(=O)[C@H](CO)NC(=O)[C@H](C)NC(=O)CC[C@H](NC(=O)CCCCCCCCCCCCCCC(=O)O)C(=O)O)[C@@H](C)O)[C@@H](C)O)C(=O)N[C@@H](CC(C)C)C(=O)N1CCC[C@H]1C(=O)N1CCC[C@H]1C(=O)N[C@H](C(=O)N[C@@H](CC(=O)O)C(=O)N[C@H](C(=O)NCC(=O)N[C@@H](CO)C(=O)N[C@@H](CC(N)=O)C(=O)N[C@H](C(=O)N1CCC[C@H]1C(N)=O)[C@@H](C)O)C(C)C)[C@@H](C)O [Compound 20, N^1-[(4S)-4-carboxy-4-(15-carboxypentadecanoylamino)butanoyl]-[Ala1,Ser2,His3,Leu4,Ser5,Ala7,Gln8,Ala10,Glu14,His17,Asp21,Pro25,Pro28,Pro29,Asp31,Pro37]-human amylin] ({C16 diacid-γGlu}-ASHLSTAQTARLAEFLHHSSDNFGPILPPTDVGSNTP-NH2) | 1.5 pM | 1.62 pM
CC[C@H](C)[C@H](NC(=O)[C@@H]1CCCN1C(=O)CNC(=O)[C@H](Cc1ccccc1)NC(=O)[C@H](CC(N)=O)NC(=O)[C@H](CC(=O)O)NC(=O)[C@H](CO)NC(=O)[C@H](CO)NC(=O)[C@H](Cc1c[nH]cn1)NC(=O)[C@H](Cc1c[nH]cn1)NC(=O)[C@H](CC(C)C)NC(=O)[C@H](Cc1ccccc1)NC(=O)[C@H](CCC(=O)O)NC(=O)[C@H](C)NC(=O)[C@H](CC(C)C)NC(=O)[C@H](CCCNC(=N)N)NC(=O)[C@H](CCC(N)=O)NC(=O)[C@@H](NC(=O)[C@H](CCC(N)=O)NC(=O)[C@H](C)NC(=O)[C@@H](NC(=O)[C@H](CO)NC(=O)[C@H](CC(C)C)NC(=O)[C@H](Cc1c[nH]cn1)NC(=O)[C@H](CO)NC(=O)[C@H](C)NC(=O)CC[C@H](NC(=O)CCCCCCCCCCCCCCCCC(=O)O)C(=O)O)[C@@H](C)O)[C@@H](C)O)C(=O)N[C@@H](CC(C)C)C(=O)N1CCC[C@H]1C(=O)N1CCC[C@H]1C(=O)N[C@H](C(=O)N[C@@H](CC(=O)O)C(=O)N[C@H](C(=O)NCC(=O)N[C@@H](CO)C(=O)N[C@@H](CC(N)=O)C(=O)N[C@H](C(=O)N1CCC[C@H]1C(N)=O)[C@@H](C)O)C(C)C)[C@@H](C)O [Compound 21, N^1-[(4S)-4-carboxy-4-(17-carboxyheptadecanoylamino)butanoyl]-[Ala1,Ser2,His3,Leu4,Ser5,Ala7,Gln8,Glu14,His17,Asp21,Pro25,Pro28,Pro29,Asp31,Pro37]-human amylin] ({C18 diacid-γGlu}-ASHLSTAQTQRLAEFLHHSSDNFGPILPPTDVGSNTP-NH2) | 1.89 pM | 1.64 pM
CC[C@H](C)[C@H](NC(=O)[C@@H]1CCCN1C(=O)CNC(=O)[C@H](Cc1ccccc1)NC(=O)[C@H](CC(N)=O)NC(=O)[C@H](CC(=O)O)NC(=O)[C@H](CO)NC(=O)[C@H](CO)NC(=O)[C@H](Cc1c[nH]cn1)NC(=O)[C@H](Cc1c[nH]cn1)NC(=O)[C@H](CC(C)C)NC(=O)[C@H](Cc1ccccc1)NC(=O)[C@H](CCC(=O)O)NC(=O)[C@H](C)NC(=O)[C@H](CC(C)C)NC(=O)[C@H](CCCNC(=N)N)NC(=O)[C@H](C)NC(=O)[C@@H](NC(=O)[C@H](CCC(N)=O)NC(=O)[C@H](C)NC(=O)[C@@H](NC(=O)[C@H](CO)NC(=O)[C@H](CC(C)C)NC(=O)[C@H](C)NC(=O)[C@H](CO)NC(=O)[C@H](C)NC(=O)CC[C@H](NC(=O)CCCCCCCCCCCCCCCCC(=O)O)C(=O)O)[C@@H](C)O)[C@@H](C)O)C(=O)N[C@@H](CC(C)C)C(=O)N1CCC[C@H]1C(=O)N1CCC[C@H]1C(=O)N[C@H](C(=O)N[C@@H](CC(=O)O)C(=O)N[C@H](C(=O)NCC(=O)N[C@@H](CO)C(=O)N[C@@H](CC(N)=O)C(=O)N[C@H](C(=O)N1CCC[C@H]1C(N)=O)[C@@H](C)O)C(C)C)[C@@H](C)O [Compound 23, N^1-[(4S)-4-carboxy-4-(17-carboxyheptadecanoylamino)butanoyl]-[Ala1,Ser2,Ala3,Leu4,Ser5,Ala7,Gln8,Ala10,Glu14,His17,Asp21,Pro25,Pro28,Pro29,Asp31,Pro37]-human amylin] ({C18 diacid-γGlu}-ASALSTAQTARLAEFLHHSSDNFGPILPPTDVGSNTP-NH2) | 1.58 pM | 1.62 pM
CC[C@H](C)[C@H](NC(=O)[C@H](C)NC(=O)CNC(=O)[C@H](Cc1ccccc1)NC(=O)[C@@H]1CCCN1C(=O)[C@H](CC(=O)O)NC(=O)[C@H](CO)NC(=O)[C@H](CO)NC(=O)[C@H](Cc1c[nH]cn1)NC(=O)[C@H](Cc1c[nH]cn1)NC(=O)[C@H](CC(C)C)NC(=O)[C@H](Cc1ccccc1)NC(=O)[C@H](CCC(=O)O)NC(=O)[C@H](C)NC(=O)[C@H](CC(C)C)NC(=O)[C@H](CCCNC(=N)N)NC(=O)[C@H](CCC(N)=O)NC(=O)[C@@H](NC(=O)[C@H](CCC(N)=O)NC(=O)[C@H](C)NC(=O)[C@@H](NC(=O)[C@H](CO)NC(=O)[C@H](CC(C)C)NC(=O)[C@H](Cc1c[nH]cn1)NC(=O)[C@H](CO)NC(=O)[C@H](C)NC(=O)CC[C@H](NC(=O)CCCCCCCCCCCCCCCCC(=O)O)C(=O)O)[C@@H](C)O)[C@@H](C)O)C(=O)N1CCC[C@H]1C(=O)N[C@@H](CO)C(=O)N[C@@H](CO)C(=O)N[C@H](C(=O)N[C@@H](CC(=O)O)C(=O)N[C@H](C(=O)NCC(=O)N1CCC[C@H]1C(=O)N[C@@H](CC(N)=O)C(=O)N[C@H](C(=O)N1CCC[C@H]1C(N)=O)[C@@H](C)O)C(C)C)[C@@H](C)O [Compound 26, N^1-[(4S)-4-carboxy-4-(17-carboxyheptadecanoylamino)butanoyl]-[Ala1,Ser2,His3,Leu4,Ser5,Ala7,Gln8,Glu14,His17,Asp21,Pro22,Pro27,Asp31,Pro34,Pro37]-human amylin] ({C18 diacid-γGlu}-ASHLSTAQTQRLAEFLHHSSDPFGAIPSSTDVGPNTP-NH2) | 2.19 pM | 1.31 pM
